Where a name gives a salt, the structure may show the parent alone.
Experiments:
[1] = biological target: T1, Full length human recombinant PIKFYVE (Homo sapiens, UniProt Q9Y2I7, L932S/Q1183K/Q995L/S1033A/S696N/T998S); test: Inhibition of PIKfyve (microfluidic electrophoresis kinase assay); assay type: biochemical; conditions: 2 nM enzyme, 1 μM PI3P, 3 h at room temperature, 12 concentrations; read-out: PIKfyve IC50
T1 construct: Full length human recombinant PIKFYVE; purchased Carna Biosciences (Kobe, Japan); host or cells: baculovirus expression system (insect cells)
Method: Biological Example 1: Inhibition of PIKfyve
Full length human recombinant PIKFYVE expressed in baculovirus expression system as N-terminal GST-fusion protein (265 kDa) was obtained from Carna Biosciences (Kobe, Japan). The kinase substrate was prepared by mixing and sonicating fluorescently-labeled phosphatidylinositol 3-phosphate (PI3P) with phospho-L-serine (PS) at a 1:10 ratio in 50 mM HEPES buffer pH7.5.
The kinase reactions were assembled in 384-well plates (Greiner) in a total volume of […] as follows. Kinase protein was pre-diluted in an assay buffer comprising 25 mM HEPES, pH 7.5, 1 mM DTT, 2.5 mM MgCl2, and 2.5 mM MnCl2, and 0.005% Triton X-100, and dispensed into a 384-well plate (10 μL per well). Test compounds were serially pre-diluted in DMSO and added to the protein samples by acoustic dispensing (Labcyte Echo). The concentration of DMSO was equalized to 1% in all samples. All test compounds were tested at 12 concentrations. Apilimod was used as a reference compound and was tested in identical manner in each assay plate. Control samples (0%-inhibition, in the absence of inhibitor, DMSO only) and 100%-inhibition (in the absence of enzyme) were assembled in replicates of four and were used to calculate %-inhibition in the presence of compounds. The reactions were initiated by addition of 10 μL of 2× PI3P/PS substrate supplemented with ATP. The final concentration of enzyme was 2 nM, the final concentration of ATP was […], and the final concentration of PI3P/PS substrate was 1 μM (PI3P). The kinase reactions were allowed to proceed for 3 h at room temperature. Following incubation, the reactions were quenched by addition of […] of termination buffer (100 mM HEPES, pH 7.5, 0.01% Triton X-100, 20 mM EDTA). Terminated plates were analyzed on a microfluidic electrophoresis instrument (Caliper LabChip® 3000, Caliper Life Sciences/Perkin Elmer). The change in the relative fluorescence intensity of the PI(3)P substrate and PI(3,5)P product peaks was measured. The activity in each test sample was determined as the product to sum ratio (PSR): P/(S+P), where P is the peak height of the product, and S is the peak height of the substrate. Percent inhibition (Pinh) was determined using the following equation:
Pinh=(PSR0%inh−PSRcompound)/(PSR0%inh−P100%inh)*100
in which PSRcompound is the product/sum ratio in the presence of compound, PSR0%inh is the product/sum ratio in the absence of compound, and the PSR100%inh is the product/sum ratio in the absence of the enzyme. To determine the ICso of test compounds (50%-inhibition) the %-inh cdata (Pinh versus compound concentration) were fitted by a four-parameter sigmoid dose-response model using XLfit software (IDBS).

[2] = biological target: T2, PI3Kα (p110α/p85α) (Homo sapiens, UniProt P42336); assay type: biochemical; conditions: 0.5 nM enzyme, ATP 90 μM, 1 μM PIP2, 3 h room temperature; read-out: PI3Kα IC50
T2 construct: Full-length N-terminal; FLAG (N); host or cells: SF9 cells (baculovirus)

[3] = biological target: T3, PI3Kβ (p110β/p85α) (Homo sapiens, UniProt P42338); assay type: biochemical; conditions: 1 nM enzyme, ATP 60 μM, 1 μM PIP2, 3 h room temperature; read-out: PI3Kβ IC50
T3 construct: Full-length N-terminal GST-; GST (N); host or cells: SF9 cells (baculovirus)

[4] = biological target: T4, PI3Kδ (p110δ/p85α) (Homo sapiens, UniProt O00329); assay type: biochemical; conditions: 0.25 nM enzyme, ATP 90 μM, 1 μM PIP2, 3 h room temperature; read-out: PI3Kδ IC50
T4 construct: Full-length N-terminal GST-; GST (N); host or cells: SF9 cells (baculovirus)

[5] = system: IPSC-C9 motor neurons; test: iPSC MN Survival assay (IPSC-C9); assay type: cell-based, human; conditions: maximal reduction in hazard ratio vs control at various concentrations; <1.0 increased survival, >1.0 decreased survival
[6] = system: ALS patient (SOD1 A4V) iPSC derived motor neurons; test: iPSC MN Survival assay (IPSC-SOD1); assay type: cell-based, human; conditions: nutrient deprived media (HBSS), six days, maximal reduction in hazard ratio, <1.0 increased survival
Method: Biological Example 4: iPSC MN Survival assay
Fibroblasts from ALS patients with known SOD1 A4V mutation were reprogrammed into inducible pluripotent stem cells (iPSC) and then differentiated to motor neurons. In culture, ALS patient derived motor neurons show increased death rate compared to motor neurons derived from healthy individuals in a stressed condition (nutrient deprived media, Hank's buffered salt solution—HBSS). […] Cell rescue was measured following more than two different concentrations of each compound for six days with greater than four replicates in a 96-well format to ensure studies with power >0.8. Cells are transduced with a GFP reporter and imaged once a day to track survival. A broad-spectrum caspase inhibitor served as the positive control.
Microscopy image-based readout: Cells are transduced with a GFP reporter and imaged once a day with a blue laser to track survival. Imagers used include the Biotek Cytation 5 and Thermo Fisher EVOS Auto FL 2. All Images undergo uniform processing consisting of rolling hat background subtraction and contrast adjustment. Microscopy images are analyzed using software proprietary to Verge. Cells are identified by their shape and each cell is tracked across images and time points for each well. Survival is visually assessed from the Kaplan-Meier curves. Survival of the cells is modeled and tested using a mixed effects Cox regression where each well is modeled as the random effect, and the group (control/treatment) as the fixed effect. […]. Data are presented in Table 7 as the maximal reduction in hazard ratio scores measured at various concentrations.

T2 sequence (P42336 whole entry): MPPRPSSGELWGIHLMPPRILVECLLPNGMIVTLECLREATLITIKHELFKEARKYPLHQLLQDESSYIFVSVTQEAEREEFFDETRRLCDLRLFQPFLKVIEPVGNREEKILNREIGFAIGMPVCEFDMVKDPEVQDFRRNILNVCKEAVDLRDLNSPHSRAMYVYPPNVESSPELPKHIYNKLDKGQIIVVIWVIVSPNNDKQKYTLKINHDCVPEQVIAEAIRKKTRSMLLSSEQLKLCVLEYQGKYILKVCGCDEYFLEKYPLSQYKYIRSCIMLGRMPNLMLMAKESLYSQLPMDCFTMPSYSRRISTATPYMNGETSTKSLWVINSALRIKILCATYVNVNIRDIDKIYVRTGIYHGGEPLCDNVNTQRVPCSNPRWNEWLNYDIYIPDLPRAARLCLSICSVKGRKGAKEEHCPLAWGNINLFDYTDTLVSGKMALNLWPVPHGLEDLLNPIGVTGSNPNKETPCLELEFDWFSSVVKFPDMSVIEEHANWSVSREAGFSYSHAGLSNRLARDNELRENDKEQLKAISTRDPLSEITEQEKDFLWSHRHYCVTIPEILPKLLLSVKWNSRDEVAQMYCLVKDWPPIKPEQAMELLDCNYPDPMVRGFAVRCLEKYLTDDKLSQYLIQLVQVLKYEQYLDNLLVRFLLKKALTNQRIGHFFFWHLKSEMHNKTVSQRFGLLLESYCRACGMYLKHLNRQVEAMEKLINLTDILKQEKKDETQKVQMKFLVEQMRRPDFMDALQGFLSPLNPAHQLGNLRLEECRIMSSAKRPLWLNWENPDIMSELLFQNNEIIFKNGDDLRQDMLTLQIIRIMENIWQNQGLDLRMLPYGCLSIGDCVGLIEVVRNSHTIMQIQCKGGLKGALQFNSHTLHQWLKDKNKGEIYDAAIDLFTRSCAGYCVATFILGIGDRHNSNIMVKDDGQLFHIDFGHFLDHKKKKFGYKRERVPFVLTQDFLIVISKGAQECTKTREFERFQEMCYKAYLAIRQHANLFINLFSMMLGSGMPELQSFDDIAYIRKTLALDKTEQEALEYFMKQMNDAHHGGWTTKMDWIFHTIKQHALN
T2 sequence (P27986 whole entry, further chain): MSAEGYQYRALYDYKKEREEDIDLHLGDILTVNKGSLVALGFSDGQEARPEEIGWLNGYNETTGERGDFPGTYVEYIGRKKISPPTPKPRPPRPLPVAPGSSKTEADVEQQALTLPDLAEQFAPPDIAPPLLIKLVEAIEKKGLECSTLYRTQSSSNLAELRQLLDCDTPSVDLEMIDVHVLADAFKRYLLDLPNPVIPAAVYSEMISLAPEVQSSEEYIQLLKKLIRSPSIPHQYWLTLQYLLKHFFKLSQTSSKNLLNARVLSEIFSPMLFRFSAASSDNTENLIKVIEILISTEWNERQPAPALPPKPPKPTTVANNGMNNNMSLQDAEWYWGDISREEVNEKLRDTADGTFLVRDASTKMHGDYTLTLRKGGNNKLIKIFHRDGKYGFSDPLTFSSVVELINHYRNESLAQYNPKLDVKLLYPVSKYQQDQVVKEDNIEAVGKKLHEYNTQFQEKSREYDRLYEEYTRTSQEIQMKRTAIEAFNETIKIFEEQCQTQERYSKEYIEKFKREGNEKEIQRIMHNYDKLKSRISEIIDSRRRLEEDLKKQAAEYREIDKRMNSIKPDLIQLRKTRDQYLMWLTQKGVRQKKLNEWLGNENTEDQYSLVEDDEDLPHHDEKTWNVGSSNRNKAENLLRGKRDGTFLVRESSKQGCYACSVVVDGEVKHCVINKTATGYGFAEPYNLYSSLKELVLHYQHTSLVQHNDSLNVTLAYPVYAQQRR
T4 sequence (O00329 whole entry): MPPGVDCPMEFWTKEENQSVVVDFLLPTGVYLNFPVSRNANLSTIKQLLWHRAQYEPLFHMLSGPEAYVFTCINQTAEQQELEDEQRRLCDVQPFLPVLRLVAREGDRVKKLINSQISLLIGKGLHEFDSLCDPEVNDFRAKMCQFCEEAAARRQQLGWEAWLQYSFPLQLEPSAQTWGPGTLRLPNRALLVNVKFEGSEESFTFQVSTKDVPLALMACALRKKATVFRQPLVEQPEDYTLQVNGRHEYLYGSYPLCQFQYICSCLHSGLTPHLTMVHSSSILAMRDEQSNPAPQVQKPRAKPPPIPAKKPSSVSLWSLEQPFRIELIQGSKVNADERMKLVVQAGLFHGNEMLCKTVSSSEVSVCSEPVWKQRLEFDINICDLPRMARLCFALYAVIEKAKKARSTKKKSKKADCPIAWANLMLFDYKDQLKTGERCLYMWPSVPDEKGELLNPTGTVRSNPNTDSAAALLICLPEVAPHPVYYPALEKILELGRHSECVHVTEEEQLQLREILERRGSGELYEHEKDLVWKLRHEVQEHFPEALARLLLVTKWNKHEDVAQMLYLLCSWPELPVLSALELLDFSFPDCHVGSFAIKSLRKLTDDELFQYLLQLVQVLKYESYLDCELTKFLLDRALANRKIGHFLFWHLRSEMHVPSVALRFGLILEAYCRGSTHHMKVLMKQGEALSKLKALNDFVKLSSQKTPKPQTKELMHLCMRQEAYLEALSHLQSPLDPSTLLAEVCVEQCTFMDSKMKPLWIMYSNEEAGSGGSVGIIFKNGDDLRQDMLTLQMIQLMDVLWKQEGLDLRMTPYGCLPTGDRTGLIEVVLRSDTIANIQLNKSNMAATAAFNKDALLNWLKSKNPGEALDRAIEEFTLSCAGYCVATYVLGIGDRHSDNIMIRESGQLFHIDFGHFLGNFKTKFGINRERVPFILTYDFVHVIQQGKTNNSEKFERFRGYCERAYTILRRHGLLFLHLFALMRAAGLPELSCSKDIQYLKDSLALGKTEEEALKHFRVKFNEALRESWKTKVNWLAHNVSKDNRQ
T4 sequence (P27986 whole entry, further chain): as the sequence (P27986 whole entry, further chain) above
T3 sequence (P42338 whole entry): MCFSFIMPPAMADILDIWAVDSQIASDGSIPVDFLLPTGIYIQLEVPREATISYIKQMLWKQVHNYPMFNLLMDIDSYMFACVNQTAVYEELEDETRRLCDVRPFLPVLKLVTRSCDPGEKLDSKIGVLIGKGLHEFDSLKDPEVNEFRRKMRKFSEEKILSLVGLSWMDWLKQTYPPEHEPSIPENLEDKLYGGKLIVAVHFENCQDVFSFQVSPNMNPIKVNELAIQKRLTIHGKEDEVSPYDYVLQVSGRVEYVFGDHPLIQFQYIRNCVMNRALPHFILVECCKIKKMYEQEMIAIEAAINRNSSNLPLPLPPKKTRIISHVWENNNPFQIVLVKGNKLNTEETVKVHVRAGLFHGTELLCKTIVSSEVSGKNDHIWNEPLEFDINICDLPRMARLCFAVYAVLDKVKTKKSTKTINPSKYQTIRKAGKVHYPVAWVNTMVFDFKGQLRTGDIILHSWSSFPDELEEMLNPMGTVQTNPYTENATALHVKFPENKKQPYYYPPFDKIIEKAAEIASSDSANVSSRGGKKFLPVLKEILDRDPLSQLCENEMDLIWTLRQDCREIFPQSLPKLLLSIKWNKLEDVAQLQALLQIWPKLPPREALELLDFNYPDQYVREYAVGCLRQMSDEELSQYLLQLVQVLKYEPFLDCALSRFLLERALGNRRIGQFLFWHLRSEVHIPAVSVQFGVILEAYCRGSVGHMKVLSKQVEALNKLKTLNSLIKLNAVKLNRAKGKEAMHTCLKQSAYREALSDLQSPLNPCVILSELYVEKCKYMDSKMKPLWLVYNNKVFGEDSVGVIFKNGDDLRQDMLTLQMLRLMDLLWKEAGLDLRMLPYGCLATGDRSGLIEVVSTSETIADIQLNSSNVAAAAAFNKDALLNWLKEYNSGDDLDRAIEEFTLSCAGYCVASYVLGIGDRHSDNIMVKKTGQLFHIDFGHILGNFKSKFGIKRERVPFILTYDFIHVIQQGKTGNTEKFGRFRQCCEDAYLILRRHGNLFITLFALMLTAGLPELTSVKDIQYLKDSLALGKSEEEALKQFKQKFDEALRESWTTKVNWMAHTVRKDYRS
T3 sequence (P27986 whole entry, further chain): as the sequence (P27986 whole entry, further chain) above

Row | SMILES | IC50 [1] | IC50 [2] | IC50 [3] | IC50 [4] | IPSC-C9 (Hazard Ratio) [5] | IPSC-SOD1 (Hazard Ratio) [6]
1 | c1ccc(-c2cc(Nc3nc(N4CCOCC4)c4oc5ncccc5c4n3)[nH]n2)cc1 [Example 9, 4-Morpholino-N-(3-phenyl-1H-pyrazol-5-yl)pyrido[3′,2′:4,5]furo[3,2-d]pyrimidin-2-amine] | 23 nM | 144 nM | > 10000 nM | 75 nM | 0.65 | 0.81
2 | c1cnc2oc3c(N4CCOCC4)nc(Nc4cc(-c5ccncc5)n[nH]4)nc3c2c1 [Example 10, 4-Morpholino-N-(3-(pyridin-4-yl)-1H-pyrazol-5-yl)pyrido[3′,2′:4,5]furo[3,2-d]pyrimidin-2-amine] | 185 nM | 117 nM | 1310 nM | 37 nM | 0.96 | 1.04
3 | Cc1cc(N(C)c2nc(N3CCOCC3)c3oc4ncccc4c3n2)nn1C [Example 11, N-(1,5-Dimethyl-1H-pyrazol-3-yl)-N-methyl-4-morpholinopyrido[3′,2′:4,5]furo[3,2-d]pyrimidin-2-amine] | > 10000 nM | 244 nM | 7030 nM | 278 nM | 0.99 | 1.1
4 | c1ccc(-c2cc(Nc3nc(N4CCOCC4)c4oc5ncc(CCN6CCCC6)cc5c4n3)[nH]n2)cc1 [Example 14, 4-Morpholino-N-(3-phenyl-1H-pyrazol-5-yl)-8-(2-(pyrrolidin-1-yl)ethyl)pyrido[3′,2′:4,5]furo[3,2-d]pyrimidin-2-amine] | 2320 nM |  |  |  | 0.9 | 0.96
5 | c1ccc(Nc2nc(N3CCOCC3)c3oc4ncccc4c3n2)cc1 [Example 37, 4-morpholino-N-phenylpyrido[3′,2′:4,5]furo[3,2-d]pyrimidin-2-amine] | 439 nM | 67 nM | 1040 nM | 41 nM | 0.99 | 1.03
6 | c1cnc2oc3c(N4CCOCC4)nc(Nc4cncnc4)nc3c2c1 [Example 43, 4-morpholino-N-(pyrimidin-5-yl)pyrido[3′,2′:4,5]furo[3,2-d]pyrimidin-2-amine] | > 10000 nM |  |  |  | 1.06 | 1.1
7 | Cc1cc(Nc2nc(N3CCOCC3)c3oc4ncccc4c3n2)nn1C [Example 47, N-(1,5-dimethyl-1H-pyrazol-3-yl)-4-morpholinopyrido[3′,2′:4,5]furo[3,2-d]pyrimidin-2-amine] | 4320 nM | 82 nM | 2630 nM | 54 nM |  | 1.1
8 | Cc1cccc(-c2cc(Nc3nc(N4CCOCC4)c4oc5ncccc5c4n3)[nH]n2)c1 [Example 49, 4-morpholino-N-(3-(m-tolyl)-1H-pyrazol-5-yl)pyrido[3′,2′:4,5]furo[3,2-d]pyrimidin-2-amine] | 38 nM |  |  |  | 1.2 | 1.03
9 | c1cnc2oc3c(N4CCOCC4)nc(Nc4cc(CC5CCC5)n[nH]4)nc3c2c1 [Example 56, N-(3-(cyclobutylmethyl)-1H-pyrazol-5-yl)-4-morpholinopyrido[3′,2′:4,5]furo[3,2-d]pyrimidin-2-amine hydrochloride] | 1790 nM | 47 nM | 937 nM | 24 nM |  | 
10 | Cl.c1cnc2oc3c(N4CCOCC4)nc(Nc4cc(-c5ccsc5)n[nH]4)nc3c2c1 [Example 61, 4-morpholino-N-(3-(thiophen-3-yl)-1H-pyrazol-5-yl)pyrido[3′,2′:4,5]furo[3,2-d]pyrimidin-2-amine hydrochloride] | 26 nM |  |  |  | 0.542 | 

Source: patent publication US20230038929A1, “Fused Tricyclic Heterocyclic Compounds and Uses Thereof” (Verge Analytics, Inc., priority 2019, published 2023)
